Values of other authors in patent publication EP3085364A1, “PHARMACEUTICAL COMBINED PREPARATION CONTAINING HMG-COA REDUCTASE INHIBITOR AND CHOLESTEROL ABSORPTION INHIBITOR” (Alvogen Korea Co., Ltd., priority 2013, dated 2015).
Like-named read-outs stand apart in the source and are kept apart here.

Columns and labels:
[1] = room temperature

SMILES | solubility in organic solvents (ethanol, methanol, or acetone) | solubility in water | stability [1] | solubility in organic solvents (N,N-dimethylformamide, acetone, or acetonitrile)
O=C1[C@H](CC[C@H](O)c2ccc(F)cc2)[C@@H](c2ccc(O)cc2)N1c1ccc(F)cc1 [Ezetimibe, 1-(4-fluorophenyl)-(3R)-[3-(4-fluorophenyl)-(3S)-hydroxypropyl]-(4S)-(4-hydroxyphenyl)-2-azetidinone] | freely to very soluble | practically insoluble | stable | –
CC(C)c1nc(N(C)S(C)(=O)=O)nc(-c2ccc(F)cc2)c1/C=C/[C@@H](O)C[C@@H](O)CC(=O)O [Rosuvastatin calcium, (E)-7-[4-(4-fluorophenyl)-6-isopropyl-2-[methyl(methylsulfonyl)amino]pyrimidin-5-yl]-(3R,5S)-3,5-dihydroxyhept-6-enic acid] | – | sparingly soluble | – | soluble
